Like-named read-outs stand apart in the source and are kept apart here. One block for each molecule: values may come before it.
Experiments:
JNK2 = JNK2 (Homo sapiens, UniProt P45984); conditions: IC50, Ki or Kd from the literature; cited from earlier work
ERBB2 = ERBB2 (Homo sapiens, UniProt P04626); conditions: IC50, Ki or Kd from the literature; cited from earlier work
EGFR = EGFR (Homo sapiens, UniProt P00533); conditions: IC50, Ki or Kd from the literature; cited from earlier work
p38α [1] = target: T1, p38α (Homo sapiens, UniProt Q16539); assay: Competition binding assay, phage-displayed kinase vs immobilized ATP-site ligand (SB202190); set-up: the coding region for p38α was cloned into the phage genome in-frame with the gene encoding the major T7 capsid protein; made in house; host or cells: T7 phage grown in E. coli (BLT 5615 in the illustrative protocol); lysate used directly
p38α [2] = target: T1, p38α; conditions: IC50, Ki or Kd from the literature; cited from earlier work

T1 sequence (Q16539 whole entry): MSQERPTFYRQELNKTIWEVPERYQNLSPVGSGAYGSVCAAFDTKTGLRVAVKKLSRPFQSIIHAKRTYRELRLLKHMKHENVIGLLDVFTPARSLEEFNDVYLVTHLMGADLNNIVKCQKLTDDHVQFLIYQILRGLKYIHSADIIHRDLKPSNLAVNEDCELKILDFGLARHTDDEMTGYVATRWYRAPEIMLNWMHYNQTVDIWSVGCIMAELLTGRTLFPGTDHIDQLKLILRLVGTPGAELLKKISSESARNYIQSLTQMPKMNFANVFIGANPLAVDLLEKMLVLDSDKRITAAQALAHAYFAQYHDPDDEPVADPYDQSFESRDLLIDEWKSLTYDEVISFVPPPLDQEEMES
Sequence of EGFR (P00533 25-1210, species assumed): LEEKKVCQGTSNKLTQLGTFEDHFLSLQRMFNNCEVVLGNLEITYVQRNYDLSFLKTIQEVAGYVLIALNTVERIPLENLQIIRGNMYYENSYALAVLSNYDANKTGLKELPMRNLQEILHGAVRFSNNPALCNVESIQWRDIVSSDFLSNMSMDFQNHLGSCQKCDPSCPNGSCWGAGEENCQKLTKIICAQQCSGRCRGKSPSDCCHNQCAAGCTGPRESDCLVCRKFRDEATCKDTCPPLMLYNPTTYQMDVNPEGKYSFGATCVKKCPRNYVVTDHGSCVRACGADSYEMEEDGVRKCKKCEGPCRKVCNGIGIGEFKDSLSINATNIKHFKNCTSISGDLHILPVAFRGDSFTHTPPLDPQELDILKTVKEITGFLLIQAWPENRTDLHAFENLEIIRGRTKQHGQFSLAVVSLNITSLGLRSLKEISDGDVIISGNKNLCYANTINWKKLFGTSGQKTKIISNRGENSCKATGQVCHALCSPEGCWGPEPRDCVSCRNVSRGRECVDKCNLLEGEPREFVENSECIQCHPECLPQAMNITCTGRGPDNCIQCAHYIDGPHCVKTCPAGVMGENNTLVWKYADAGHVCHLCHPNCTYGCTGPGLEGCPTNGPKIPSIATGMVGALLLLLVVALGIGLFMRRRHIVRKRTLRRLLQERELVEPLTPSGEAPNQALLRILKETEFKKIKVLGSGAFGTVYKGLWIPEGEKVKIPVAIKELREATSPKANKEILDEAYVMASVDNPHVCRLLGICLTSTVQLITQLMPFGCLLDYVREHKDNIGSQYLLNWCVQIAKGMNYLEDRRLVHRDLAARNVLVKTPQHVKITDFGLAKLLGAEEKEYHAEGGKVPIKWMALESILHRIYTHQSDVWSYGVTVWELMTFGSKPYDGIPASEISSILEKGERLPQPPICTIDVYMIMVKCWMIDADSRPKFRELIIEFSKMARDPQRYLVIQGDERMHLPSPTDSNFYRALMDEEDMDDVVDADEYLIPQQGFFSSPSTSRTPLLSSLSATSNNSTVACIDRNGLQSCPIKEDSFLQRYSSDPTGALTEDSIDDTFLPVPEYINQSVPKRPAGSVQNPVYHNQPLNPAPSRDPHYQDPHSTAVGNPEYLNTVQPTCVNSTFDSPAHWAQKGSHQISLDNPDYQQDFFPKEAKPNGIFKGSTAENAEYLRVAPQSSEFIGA
Sequence of ERBB2 (P04626 23-1255, species assumed): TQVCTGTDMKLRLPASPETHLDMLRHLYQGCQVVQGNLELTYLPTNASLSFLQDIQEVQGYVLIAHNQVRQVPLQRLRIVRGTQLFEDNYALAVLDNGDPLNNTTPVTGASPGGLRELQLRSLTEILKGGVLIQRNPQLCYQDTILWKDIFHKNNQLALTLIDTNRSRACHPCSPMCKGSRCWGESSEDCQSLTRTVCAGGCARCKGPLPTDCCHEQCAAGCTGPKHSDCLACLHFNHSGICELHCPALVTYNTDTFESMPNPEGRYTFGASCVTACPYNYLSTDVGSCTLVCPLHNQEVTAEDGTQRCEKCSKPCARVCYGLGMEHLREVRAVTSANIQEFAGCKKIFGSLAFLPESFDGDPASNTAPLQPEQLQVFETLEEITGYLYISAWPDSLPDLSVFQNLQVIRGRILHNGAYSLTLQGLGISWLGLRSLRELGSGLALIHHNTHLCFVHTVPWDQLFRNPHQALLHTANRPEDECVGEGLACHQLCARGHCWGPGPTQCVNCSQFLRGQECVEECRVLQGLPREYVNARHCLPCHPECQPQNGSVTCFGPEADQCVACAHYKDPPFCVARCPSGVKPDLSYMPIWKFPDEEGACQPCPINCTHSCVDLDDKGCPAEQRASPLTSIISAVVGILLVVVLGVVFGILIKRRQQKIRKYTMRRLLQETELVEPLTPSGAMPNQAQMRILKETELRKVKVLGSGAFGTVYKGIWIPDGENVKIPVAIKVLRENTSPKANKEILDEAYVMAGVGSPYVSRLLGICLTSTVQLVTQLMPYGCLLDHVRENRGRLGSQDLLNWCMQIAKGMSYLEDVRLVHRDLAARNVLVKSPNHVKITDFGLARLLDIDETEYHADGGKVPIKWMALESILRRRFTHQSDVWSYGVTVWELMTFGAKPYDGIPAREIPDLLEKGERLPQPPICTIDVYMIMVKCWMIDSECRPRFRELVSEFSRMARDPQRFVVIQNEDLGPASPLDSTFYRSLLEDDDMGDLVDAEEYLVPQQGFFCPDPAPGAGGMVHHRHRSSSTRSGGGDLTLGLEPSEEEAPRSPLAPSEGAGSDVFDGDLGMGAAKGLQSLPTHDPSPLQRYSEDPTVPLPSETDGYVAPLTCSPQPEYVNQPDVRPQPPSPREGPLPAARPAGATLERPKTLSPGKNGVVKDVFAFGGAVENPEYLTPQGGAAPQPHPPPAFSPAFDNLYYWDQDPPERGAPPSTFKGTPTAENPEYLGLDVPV
Sequence of JNK2 (P45984 whole entry, species assumed): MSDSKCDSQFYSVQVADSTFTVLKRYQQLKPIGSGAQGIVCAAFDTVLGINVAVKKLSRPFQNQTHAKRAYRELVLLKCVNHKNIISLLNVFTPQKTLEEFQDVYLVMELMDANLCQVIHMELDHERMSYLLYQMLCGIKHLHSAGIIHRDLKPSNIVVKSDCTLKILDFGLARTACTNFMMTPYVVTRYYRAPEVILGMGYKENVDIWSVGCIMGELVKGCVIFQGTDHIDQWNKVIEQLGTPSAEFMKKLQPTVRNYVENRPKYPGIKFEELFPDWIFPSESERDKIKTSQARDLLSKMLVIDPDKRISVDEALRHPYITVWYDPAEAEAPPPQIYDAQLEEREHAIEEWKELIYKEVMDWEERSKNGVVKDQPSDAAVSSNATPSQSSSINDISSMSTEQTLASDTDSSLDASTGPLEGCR

Structure (SMILES): O=C1c2ccccc2-c2n[nH]c3cccc1c23 [CC-401]
Published (JNK2): 110 (Z. Han et al., J. Clin. Invest. 108, 73 (2001)) nM

Structure (SMILES): CS(=O)(=O)CCNCc1ccc(-c2ccc3c(Nc4ccc(OCc5cccc(F)c5)c(Cl)c4)ncnc3c2)o1 [GW-2016]
Published (ERBB2): 9.2 (D. W. Rusnak et al., Mol. Cancer Ther. 1, 85 (2001)) nM | Published (EGFR): 11 (D. W. Rusnak et al., Mol. Cancer Ther. 1, 85 (2001)) nM

binding (association) kinetics (p38α [1]; p38, known and also observed in the competition assays): fast
Structure (SMILES): Oc1ccc(-c2nc(-c3ccncc3)c(-c3ccc(F)cc3)[nH]2)cc1 [SB202190]
Published (p38α [2]): 37 (B. Frantz et at., Biochemistry 37, 13846 (1998)). nM

Structure (SMILES): CCc1nc(-c2ccc(OC)cc2)[nH]c1-c1ccncc1 [SB202474]
decrease of the amount of phage-displayed p38 bound to the solid support (p38α [1]): neither SB202474 nor purvalanol A had a significant effect

Structure (SMILES): CC(C)[C@H](CO)Nc1nc(Nc2cccc(Cl)c2)c2ncn(C(C)C)c2n1 [purvalanol A]
decrease of the amount of phage-displayed p38 bound to the solid support (p38α [1]; competition with immobilized SB202190, FIG. 1B): neither SB202474 nor purvalanol A had a significant effect

— patent publication US9267165B2, “Assays and kits for detecting protein binding” (DiscoveRx Corporation, priority 2002, dated 2016)
